biological target: T1, hCRTH2 (Homo sapiens, UniProt Q9Y5Y4); experiment: Radioligand Binding Assay A ([3H]PGD2 filtration binding, HEK-hCRTH2 membranes); settings: Table A, rated A-D
T1 construct: expressed in transfected cells; host or cells: HEK (human embryonic kidney) cells expressing hCRTH2
T1 sequence (Q9Y5Y4 1-395): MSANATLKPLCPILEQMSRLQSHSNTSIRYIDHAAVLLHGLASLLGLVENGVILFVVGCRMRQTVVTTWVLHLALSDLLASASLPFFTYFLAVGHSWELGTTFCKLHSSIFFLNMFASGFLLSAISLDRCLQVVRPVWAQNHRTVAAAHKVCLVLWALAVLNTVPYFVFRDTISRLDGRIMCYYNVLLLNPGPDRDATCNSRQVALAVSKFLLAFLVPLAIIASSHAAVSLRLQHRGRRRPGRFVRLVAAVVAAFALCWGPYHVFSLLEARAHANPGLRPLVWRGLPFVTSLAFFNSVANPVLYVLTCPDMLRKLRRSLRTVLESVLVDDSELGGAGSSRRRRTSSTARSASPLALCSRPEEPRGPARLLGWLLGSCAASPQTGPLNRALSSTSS
Procedure: Radioligand binding assays were performed at room temperature in 50 mM Tris-HCl pH 7.4, 1 mM EDTA containing 2 mM MnCl2 and 3.0 nM [^3H]PGD2 (New England Nuclear, Boston, Mass.) (171 Ci mmol^−1), in a final volume of 0.2 ml. Competing ligands were diluted in dimethylsulfoxide (Me2SO) that was kept constant at 1% (v/v) of the final incubation volume. The reaction was initiated by the addition of 8-20 μg of membrane protein prepared from a human embryonic kidney (HEK)-hCRTH2 cell line. Total and non-specific binding were determined in the absence and the presence of 10 μM PGD2, respectively. Under these conditions, specific binding (total minus non-specific) of the radioligand to the receptor reached equilibrium within 50 min and was stable up to 180 min. The reaction was routinely conducted for 60 min at room temperature and terminated by rapid filtration through prewetted (0.3% polyethyleneimine) 96-well printed Filtermate™ (Wallac) using a Tomtec® harvester (Hamden, Conn.). After washing with cold buffer, the filter was dried for 2 minutes in microwave, and Meltilex Scintillator sheet (Wallac) was melted on for 2 min. The radioactivity was measured with Betaplate model 1205 (Wallac).

| Compound | Ki [µM] |
| --- | --- |
| COc1ccc([C@@H](NC(=O)c2cnc3nc(-c4ccc(F)cc4)c(CCCCC(=O)O)cc3c2)C(F)(F)F)cc1 [Compound 6i, 2-(4-fluorophenyl)-6-[[[2,2,2-trifluoro-1(R)-(4-methoxyphenyl)ethyl]amino]carbonyl]-1,8-naphthyridine-3-pentanoic acid] | 0.0201 to 0.2 |
| N#Cc1ccc([C@H](NC(=O)c2ccc3nc(-c4ccc(F)cc4)c(CCCCC(=O)O)cc3c2)C(F)(F)F)cc1 [Compound 5T] | 0.0201 to 0.2 |
| O=C(O)CCCCc1cc2cc(C(=O)N[C@H]3CCc4ccc(F)cc43)cnc2nc1-c1ccc(F)cc1 [Compound 6M, 6-[[(6-fluoro-2,3-dihydro-1H-inden-1(S)-yl)amino]carbonyl]-2-(4-fluorophenyl)-1,8-naphthyridine-3-pentanoic acid] | 0.0201 to 0.2 |
| O=C(O)CCCCc1cc2cc(C(=O)N[C@@H]3CCCc4ccc(F)cc43)ccc2nc1-c1ccc(F)cc1 [Compound 5H, 2-(4-fluorophenyl)-6-[[(7-fluoro-1,2,3,4-tetrahydro-1(R)-naphthalenyl)amino]carbonyl]-3-quinolinepentanoic acid] | 0.0021 to 0.02 |
| C[C@H](NC(=O)c1ccc2nc(-c3ccc(F)cc3)c(CCCCC(=O)O)cc2c1)c1ccc(F)cc1 [Compound 5J, 2-(4-fluorophenyl)-6-[[[1(S)-(4-fluorophenyl)ethyl]amino]carbonyl]-3-quinolinepentanoic acid] | 0.0021 to 0.02 |
| O=C(O)CCCCc1cc2cc(C(=O)NC(c3ccccc3)c3ccccc3)ccc2nc1-c1ccc(F)cc1 [Compound 5AA, 5-(6-(benzhydrylcarbamoyl)-2-(4-fluorophenyl)quinolin-3-yl)pentanoic acid] | 0.0021 to 0.02 |
| O=C(O)CCCCc1nc2cc(C(=O)N3CC[C@@H](c4ccccc4)C3)ccc2cc1-c1ccccc1 [Compound 3H, 3-phenyl-7-[(3(S)-phenyl-1-pyrrolidinyl)carbonyl]-2-quinolinepentanoic acid] | 0.0021 to 0.02 |

Next, values leading:

| Ki [µM] | Compound |
| --- | --- |
| 0.0021 to 0.02 | O=C(O)CCCCc1cc2cc(C(=O)N[C@H]3CCCc4ccccc43)ccc2nc1-c1ccc(F)cc1 [Compound 5M, 2-(4-fluorophenyl)-6-[[(1,2,3,4-tetrahydro-1(S)-naphthalenyl)amino]carbonyl]-3-quinolinepentanoic acid] |
| 0.0021 to 0.02 | O=C(O)CCCCc1cc2cc(C(=O)N[C@H]3CCCc4cc(Cl)ccc43)ccc2nc1-c1ccc(F)cc1 [Compound 5S, 6-[[(6-chloro-1,2,3,4-tetrahydro-1(S)-naphthalenyl)amino]carbonyl]-2-(4-fluorophenyl)-3-quinolinepentanoic acid] |
| 0.0021 to 0.02 | Cc1cccc(CNC(=O)c2ccc3nc(-c4ccccc4)c(CCCCC(=O)O)cc3c2)c1 [Compound 2A, 6-[[[(3-methylphenyl)methyl]amino]carbonyl]-2-phenyl-3-quinolinepentanoic acid] |
| 0.0021 to 0.02 | O=C(O)CCCCc1cc2cc(C(=O)N3CC[C@@H](c4ccccc4)C3)ccc2nc1-c1ccccc1 [Compound 1i, 2-phenyl-6-[(3(S)-phenyl-1-pyrrolidinyl)carbonyl]-3-quinolinepentanoic acid] |
| 0.0021 to 0.02 | O=C(O)CCCCc1cc2cc(C(=O)N[C@@H]3CCc4ccccc43)ccc2nc1-c1ccc(F)cc1 [Compound 5E, 6-[[(2,3-dihydro-1H-inden-1(R)-yl)amino]carbonyl]-2-(4-fluorophenyl)-3-quinolinepentanoic acid] |
| 0.0021 to 0.02 | O=C(O)CCCCc1cc2cc(C(=O)N[C@H](c3cc(Cl)cc(Cl)c3)C(F)(F)F)cnc2nc1-c1ccc(F)cc1 [Compound 6Q, 6-[[[1(R)-(3,5-dichlorophenyl)-2,2,2-trifluoroethyl]amino]carbonyl]-2-(4-fluorophenyl)-1,8-naphthyridine-3-pentanoic acid] |
| 0.0021 to 0.02 | C[C@H](NC(=O)c1ccc2cc(-c3ccccc3)c(CCCCC(=O)O)nc2c1)c1ccc(Cl)cc1 [Compound 3G, 7-[[[1(S)-(4-chlorophenyl)ethyl]amino]carbonyl]-3-phenyl-2-quinolinepentanoic acid] |

same assay, conditions: values in text

| Ki [µM] | Compound |
| --- | --- |
| 0.0027 | O=C(O)CCCCc1nc2cc(C(=O)N3CC[C@@H](c4ccccc4)C3)ccc2cc1-c1ccccc1 [Compound 3H, 3-phenyl-7-[(3(S)-phenyl-1-pyrrolidinyl)carbonyl]-2-quinolinepentanoic acid] |
